Consider 12 molecules from ChEMBL document CHEMBL5614367, “Hydroxamic acid hybrids: Histone deacetylase inhibitors with anticancer therapeutic potency” (Eur J Med Chem, 2023).

SMILES strings stand for the structures. A value given as a limit tells only on which side of the number the result lay.

One assay deals with KYSE-450. Briefly: Antiproliferative activity against human KYSE-450 cells. The assay is classed as functional, cell-based.
Assay [1] relates to HCT-116. Briefly: cells. The note with it: Homo sapiens.
A further assay concerns MGC-803. Put plainly: Antitumor activity against human MGC-803 cells xenografted in mouse assessed as tumor growth inhibition at 20 mg/kg relative to control. The assay is classed as functional. As to conditions: read-out: TGI.
The subject of assay [2] is A549. Briefly: Antiproliferative activity against human A549 cells.
A further assay concerns HT-29. Briefly: Antiproliferative activity against human HT-29 cells. The assay is classed as functional, cell-based.
The next assay has as its system HepG2. Briefly: Antiproliferative activity against human HepG2 cells. The assay is classed as functional, cell-based.
The subject of assay [3] is MCF7. Briefly: cells. As to conditions: Homo sapiens.
The test system of the next assay is HeLa. Put plainly: Antiproliferative activity against human HeLa cells. The assay is classed as functional, cell-based.
The target of another assay is Histone deacetylase. Put plainly: Inhibition of HDAC (unknown origin). The assay is classed as protein assay, Homo sapiens.
The test system of the next assay is PC-3. Put plainly: Antiproliferative activity against human PC-3 cells incubated for 72 hrs by colorimetric method. The assay is classed as functional, cell-based. As to conditions: PC-3, 72 h.
For the next assay, the system named is NCI-H23. Put plainly: Antiproliferative activity against human NCI-H23 cells incubated for 72 hrs by colorimetric method. Format: functional, cell-based. As to conditions: NCI-H23, 72 h.
The next assay relates to SW-620. Briefly: Antiproliferative activity against human SW620 cells incubated for 72 hrs by colorimetric method. Format: functional, cell-based. As to conditions: SW-620, 72 h.
Assay [4] has as its system MCF7. Briefly: Antiproliferative activity against human MCF7 cells measured after 72 hrs by MTT assay. Format: functional, cell-based. The note with it: MCF7, 72 h.
The test system of assay [5] is HCT-116. Briefly: Antiproliferative activity against human HCT-116 cells measured after 72 hrs by MTT assay. As to conditions: HCT-116, 72 h. Format: functional, cell-based. (In general: Formazan colour is commonly taken as a measure of viable cells.)
In assay [6] the test system is A549. Put plainly: Antiproliferative activity against human A549 cells measured after 72 hrs by MTT assay. Format: functional, cell-based. The note with it: A549, 72 h.
In a further assay the target is T1, Histone deacetylase 8 (Homo sapiens, UniProt Q9BY41).
T1 sequence (Q9BY41 whole entry): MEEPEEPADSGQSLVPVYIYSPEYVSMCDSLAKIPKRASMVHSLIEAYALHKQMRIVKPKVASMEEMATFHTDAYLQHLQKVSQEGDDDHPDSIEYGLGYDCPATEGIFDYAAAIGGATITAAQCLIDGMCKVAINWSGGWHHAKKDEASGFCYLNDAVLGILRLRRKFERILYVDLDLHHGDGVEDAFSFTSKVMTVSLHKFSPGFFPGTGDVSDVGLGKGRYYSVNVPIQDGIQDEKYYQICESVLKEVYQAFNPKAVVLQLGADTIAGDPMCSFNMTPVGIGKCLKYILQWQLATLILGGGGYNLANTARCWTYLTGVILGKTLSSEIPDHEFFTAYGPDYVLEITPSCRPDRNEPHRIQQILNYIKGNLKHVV
Briefly: Inhibition of HDAC8 (unknown origin) using R-H-K(Ac)-K(Ac)-AFC as fluoregenic substrate by fluorescence based analysis.

For assay [7], the system named is MCF7. Briefly: Cytotoxicity against human MCF7 cells assessed as reduction in cell growth incubated for 24 hrs by MTT assay. The assay is classed as functional, cell-based. As to conditions: MCF7, 24 h.
The next assay has as its system MV4-11. Briefly: Cytotoxicity against human MV4-11 cells assessed as reduction in cell growth incubated for 24 hrs by MTT assay. The assay is classed as functional, cell-based. As to conditions: MV4-11, 24 h.
In assay [8] the test system is A549. Briefly: Cytotoxicity against human A549 cells assessed as reduction in cell growth incubated for 24 hrs by MTT assay. Format: functional, cell-based. The note with it: A549, 24 h.
For a further assay, the system named is Daudi. Put plainly: Cytotoxicity against human Daudi cells assessed as reduction in cell growth incubated for 24 hrs by MTT assay. Format: functional, cell-based.

The term IC50 denotes the concentration needed to halve the response being measured. As for `CNC(=O)c1ccccc1Nc1nc(Nc2ccc(N3CCOCC3)cc2OC)ncc1Cl`, the IC50 in the assay on KYSE-450 and with HCT-116 [1] was 719 nM in each case. Besides, the inhibition in vivo at 20 mg/kg in the assay with MGC-803 was found to be 22.3%.
For `COc1ccc2c(c1)[nH]c1c(C)nccc12` [HARMINE], the IC50 with HCT-116 [1], in the assay on A549 [2], in the assay on HT-29 and in the assay with HepG2 was over 20000 nM in each case.
With `CN1c2ccc(NCC3CCN(c4ncc(C(=O)NO)cn4)CC3)cc2C(=O)N2CCc3c([nH]c4ccc(O)cc34)C21` (centres undefined), the concentration for half-maximal inhibition (IC50) in the assay on MCF7 [3] and with A549 [2] was 230 nM in each case.
Take `COc1ccc2cc(C(=O)Oc3cccc(/C=C/C(=O)NO)c3)c(=O)oc2c1`: the IC50 in the assay on HCT-116 [1], in the assay on MCF7 [3], in the assay on HeLa and with HepG2 was 6910 nM in each case.
`Cc1ccc(NS(=O)(=O)Nc2nc(C(=O)NO)cs2)cc1`: the 50% inhibitory concentration (IC50) was 36 nM on Histone deacetylase, 1450 nM with PC-3, 1450 nM with NCI-H23 and 1450 nM with SW-620.
For the molecule `COc1cc2c(Oc3ccc(NC(=O)C4(C(=O)Nc5ccc(F)cc5)CC4)cc3F)ccnc2cc1OCCCN1CCOCC1` [FORETINIB], the 50% inhibitory concentration (IC50) in the assay on MCF7 [4], in the assay on HCT-116 [5] and in the assay on A549 [6] was 520 nM each time.
With `COc1cc2c(Oc3ccc(NC(=O)C4CCN(c5cccc(F)c5)C4=O)cc3)ccnc2cc1OCCCCCCC(=O)NO` (centres undefined), the half-inhibitory concentration (IC50) with MCF7 [4], in the assay with HCT-116 [5] and in the assay on A549 [6] was 280 nM throughout.
In the case of `CCN(CC)c1ccc2cc(C(=O)Oc3cccc(/C=C/C(=O)NO)c3)c(=O)oc2c1`, the IC50 with HCT-116 [1], with MCF7 [3], in the assay on HeLa and in the assay with HepG2 was 7010 nM in each case.
As to `O=C(CCCCCN1C(=O)c2ccccc2NC(=O)c2ccccc21)NO`, the IC50 against Histone deacetylase 8 turned out to be 183 nM; in the assay with MCF7 [7], 93 nM; with MV4-11, 93 nM; in the assay on A549 [8] it was 93 nM; with Daudi it was 93 nM.
`O=C(NO)c1csc(NS(=O)(=O)Nc2ccc(Cl)cc2)n1`: the IC50 came to 36 nM against Histone deacetylase, 1450 nM with PC-3, 1450 nM in the assay on NCI-H23 and 1450 nM with SW-620.
For `O=C(NO)c1csc(NS(=O)(=O)Nc2ccccc2)n1`, the IC50 in the assay with PC-3, in the assay with NCI-H23 and with SW-620 was 1450 nM in each case.
Take `O=C(CCCCCN1C(=O)c2ccccc2/C=C\c2ccccc21)NO`: the half-inhibitory concentration (IC50) is 183 nM against Histone deacetylase 8; 93 nM in the assay on MCF7 [7]; 93 nM with MV4-11; 93 nM with A549 [8]; 93 nM in the assay with Daudi.
